Test results as given in patent US10906880B2, “Kind of isothiazole oxime ether-containing strobilurin derivatives and its preparation methods and application” (priority 2016, dated 2021).
Read-outs that look alike come from different tables or passages of the source.

Tests used:
Botrytis cinerea = assay: Fungicide activity, mycelial growth inhibition on PDA plate; format: cell-based; details: Botrytis cinerea, read-out: Fungicidal activity inhibition, BC
Sclerotinia sclerotiorum = assay: as above; format: cell-based; details: Sclerotinia sclerotiorum, read-out: Fungicidal activity inhibition, SS
Physalospora piricola = assay: as above; format: cell-based; details: read-out: Fungicidal activity inhibition, PP
[1] = test system: Phytophthora infestans (Mont) de Bary; assay: microbe, parasite or virus in culture; format: cell-based; details: for inhibition at 50 µg/mL: Phytophthora infestans, read-out: Fungicidal activity inhibition, PI, 50 μg/mL, P. infestans (Mont.) de Bary
Alternaria solani = assay: Fungicide activity, mycelial growth inhibition on PDA plate; format: cell-based; details: Alternaria solani, read-out: Fungicidal activity inhibition, AS
Rhizoctonia cerealis = assay: as above; format: cell-based; details: Ceratobasidium cereale, read-out: Fungicidal activity inhibition, RC
Cercospora arachidicola = assay: Fungicide activity, mycelial growth inhibition on PDA plate; format: cell-based; details: Mycosphaerella arachidis, read-out: Fungicidal activity inhibition, CA
Pellicularia sasakii = assay: as above; format: cell-based; details: 50 μg/mL, P. sasakii; read-out: Fungicidal activity inhibition, PS
TMV [2] = assay: Anti-TMV activity on tobacco, curative mode; format: in vivo, tobacco mosaic virus; details: for inhibition at 100 µg/mL: Tobacco mosaic virus, read-out: Anti-TMV activity inhibition, Curative effect
TMV [3] = assay: Anti-TMV activity on tobacco, protection mode; format: in vivo, tobacco mosaic virus; details: Tobacco mosaic virus, 100 μg/mL, read-out: Anti-TMV activity inhibition, Protection effect
TMV [4] = assay: Anti-TMV activity on tobacco, inactivation mode; format: in vivo, tobacco mosaic virus; details: Tobacco mosaic virus, 100 μg/mL, read-out: Anti-TMV activity inhibition, Inactivation effect

Compound	inhibition at 50 µg/mL (Botrytis cinerea; 50 μg/mL, B. cinerea) [%]	inhibition at 50 µg/mL (Sclerotinia sclerotiorum; 50 μg/mL, S. sclerotiorum) [%]	inhibition at 50 µg/mL (Sclerotinia sclerotiorum) [%]	inhibition at 50 µg/mL (Physalospora piricola; 50 μg/mL, P. piricola) [%]	inhibition at 50 µg/mL [1] [%]	inhibition at 50 µg/mL (Alternaria solani; 50 μg/mL, A. solani) [%]	inhibition at 50 µg/mL (Alternaria solani) [%]	inhibition at 50 µg/mL (Rhizoctonia cerealis; 50 μg/mL, R. cerealis) [%]	melting point [°C]	inhibition at 50 µg/mL (Cercospora arachidicola; 50 μg/mL, C. arachidicola) [%]	inhibition at 50 µg/mL (Cercospora arachidicola) [%]	inhibition at 50 µg/mL (Pellicularia sasakii) [%]	inhibition at 100 µg/mL (TMV [2]; 100 μg/mL, tobacco) [%]	inhibition at 100 µg/mL (TMV [3]) [%]	inhibition at 50 µg/mL (Rhizoctonia cerealis) [%]	inhibition at 100 µg/mL (TMV [4]) [%]	also measured
CO/C=C(/C(=O)OC)c1ccccc1CO/N=C(\C)c1snc(Cl)c1Cl [CL03-49]	100	80	> 40	78.3	> 40	42.9	> 30	100	100 to 102	66.7	> 30	64.7	> 30	35.9 ± 0.63			
CO/C=C(/C(=O)OC)c1ccccc1CO/N=C(\C)CC(=O)c1snc(Cl)c1Cl [CL04-04-B]	58.3	76.7	> 40	60.9	> 40	50	> 30	92.6	103 to 105	75		64.7	19.1 ± 2	> 40	> 50		inhibition at 50 µg/mL (Botrytis cinerea): > 45%
CO/N=C(/C(=O)OC)c1ccccc1CO/N=C/c1snc(Cl)c1Cl [CL04-15B]	100	90		62.1		100		98.2	88 to 90	91.7		69.2	27 ± 4.13	14.7 ± 2.73			
C#CCNC(=O)/C(=N/OC)c1ccccc1CO/N=C(C)/C=C/c1snc(Cl)c1Cl [CL04-32B]	47.4	80	> 40	64.9		41	> 30	100	92 to 93	52	> 30	78.4		23.4 ± 1.02			inhibition at 50 µg/mL (Botrytis cinerea): > 45%; Fungicidal activity inhibition, PI ([1]; 50 μg/mL, P. infestans (Mont.) de Bary): 100%
CO/C=C(/C(=O)OC)c1ccccc1CO/N=C(\C)CC(O)c1snc(Cl)c1Cl (stereo not shown) [CL04-04-A]	100	90		73.9	> 40	85.7		100	36 to 38	75		52.9	19.1 ± 2.13				
CO/C=C(/C(=O)OC)c1ccccc1CO/N=C(\N)c1snc(Cl)c1Cl [CL04-03]	100	100		87	> 40	57.1	> 30	100	105 to 107	100		58.8	> 30	35.1 ± 0.39			
CO/N=C(/C(=O)N[C@H](C)CSC)c1ccccc1CO/N=C(C)/C=C/c1snc(Cl)c1Cl [CL04-32F]	42.9	52.9	> 40	58	20	12.7		62		12.5		21.2		> 40	> 50	7.71 ± 1.42	
CO/N=C(/C(=O)NCC(F)F)c1ccccc1CO/N=C(\C)c1snc(Cl)c1Cl [CL04-22A]	53.9	84	> 40	40.4		37.1	> 30	87.7	78 to 80	42.9	> 30	20	23.4 ± 5.58	30.7 ± 2.06	> 50	> 30	inhibition at 50 µg/mL (Botrytis cinerea): > 45%
NC(=O)c1ncn([C@@H]2O[C@H](CO)[C@@H](O)[C@H]2O)n1 [Ribavirin, reference compound]																78 ± 1	
CO/C=C(/C(=O)OC)c1ccccc1CO/N=C/c1snc(Cl)c1Cl [CL03-50]	100	53.3	> 40	78.3	> 40	57.1	> 30	100	61 to 63	66.7	> 30	64.7	> 30	> 40			Anti-TMV activity inhibition, Curative effect (TMV [2]; 100 μg/mL, tobacco): 48.32 ± 5.88%
CO/N=C(/C(=O)OC)c1ccccc1CO/N=C(\N)c1snc(Cl)c1Cl [CL04-15C]	100	98		71.2		52.9	> 30	89.1	104 to 106	75		76.9	1.52 ± 0.62	25.1 ± 4.33	> 50		
CNCC(=O)N[C@@H](CO)C(=O)N[C@H]1[C@H](O)[C@@H](O)[C@H](n2ccc(N)nc2=O)O[C@@H]1C(N)=O [Ningnanmycin, reference compound]																	inhibition at 100 µg/mL (TMV [2]): 74.1 ± 2.04%
CO/C=C(/C(=O)OC)c1ccccc1CO/N=C(C)/C=C/c1snc(Cl)c1Cl [CL04-06]	100	100				57.1	> 30	100	101 to 103	50	> 30	70.6	22.4 ± 6.85	> 40		22.2 ± 5.9	inhibition at 50 µg/mL (Physalospora piricola): 73.9%
